Where a SMILES comes first, the peptide text is derived from it.
Row | SMILES | logP
1 | CCOc1cc2ncnc(Nc3ccc(F)cc3)c2cc1OCC | 3.73
2 | COCc1c(O)c(=O)cc(C)n1C | -0.42
3 | CC(C)C(N)C(=O)NC(Cc1ccccc1)C(=O)NC(Cc1ccc(O)cc1)C(=O)O (centres undefined) | -1.5
4 | NC(Cc1ccccc1)C(=O)N1CCCC1C(=O)O (stereo not drawn) (H-Phe-Pro-OH; configuration not given here) | -1.23
5 | Nc1ncnc2c1ncn2C1OC(CCl)C(O)C1O (centres undefined) | -0.06
6 | Cc1c(O)c(=O)ccn1CCCOC(=O)c1ccccn1 | -0.18
7 | CC(C)CC(NC(=O)C(N)Cc1ccc(O)cc1)C(=O)NC(C(=O)O)C(C)C (stereo not drawn) (H-Tyr-Leu-Val-OH; configuration not given here) | -1.45
8 | CC1CC2OC(=O)C(C)C2C(O)C2(C)C(=O)C=CC12 (centres undefined) | 0.53
9 | Cc1c2occc2cc2ccc(=O)oc12 | 2.48
10 | CCC(C)C(NC(=O)C(C)NC(=O)C(CC(C)C)NC(=O)C(N)CO)C(=O)NC(C(=O)O)C(C)C (centres undefined) (H-SLAIV-OH; configuration not given here) | -1.94
11 | OCC1OC(n2cnc3c(Nc4ccccc4)ncnc32)C(O)C1O (centres undefined) | 1.28
12 | CCC(C)C(N)C(=O)NC(C(=O)NC(C(=O)NC(C(=O)NCC(=O)O)C(C)CC)C(C)CC)C(C)CC (centres undefined) (H-IIIIG-OH; configuration not given here) | -0.97
13 | C#CC(C)(C)NCC(O)CON=C(C1CC1)C1CC1 (centres undefined) | 1.6
14 | Cc1cn(C2C=CC(COP3(=O)OCc4cc([N+](=O)[O-])ccc4O3)O2)c(=O)[nH]c1=O (centres undefined) | 0.18
15 | CS(=O)(=O)Nc1cccc(Cn2cnc3ccccc32)c1 | 2.08
16 | CC1(C)C2CCC(CO)C1C2 (centres undefined) | 3.41
17 | COc1ccc(SC)cc1CNC1CCCNC1c1ccccc1 (centres undefined) | 3.7
18 | Cc1oc2nc3oc(=O)cc(C)c3cc2c1C | 2.25
19 | COC(=O)Cn1c(C)nc2ccccc2c1=O | 1.46
20 | Nc1nnnn1-c1ccc(Cl)c(Cl)c1 | 2.06
21 | CCCCNC(C)CO (centres undefined) | 1.19
22 | Cc1cc2ccc(=O)oc2c2c(C)coc12 | 2.88
23 | NC(Cc1ccc(O)cc1)C(=O)N1CCCC1C(=O)NCC(=O)NC(Cc1c[nH]c2ccccc12)C(=O)O (centres undefined) (H-YPGW-OH; configuration not given here) | -1.25
24 | CC(N)C(=O)NCC(=O)NC(Cc1ccccc1)C(=O)NC(C(=O)NC(Cc1ccccc1)C(=O)O)C(C)C (centres undefined) (H-AGFVF-OH; configuration not given here) | -1.1
25 | O=C(NO)C(=Cc1ccccc1)C(=O)NCc1ccc(F)cc1 | 1.7
26 | CCOCCCNc1ncnc2c1ncn2C1OC(CO)C(O)C1O (centres undefined) | 0.22
27 | CCC1CC2C3CCC4=CC(=O)CCC4C3CCC2(C)C1C(=O)CO (centres undefined) | 4.01

Row | SMILES | logP
28 | COc1cc(OC)c2c(c1)OC(c1ccc(OC)c(OC)c1)C(OC)C2 (centres undefined) | 3.68
29 | CC(C)C(NC(=O)C(Cc1ccccc1)NC(=O)CNC(=O)CNC(=O)C(N)Cc1c[nH]c2ccccc12)C(=O)O (centres undefined) (H-WGGFV-OH; configuration not given here) | -0.44
30 | O=C(CCCN=C=S)c1cccnc1 | 1.79
31 | O=c1cc(CCl)occ1O | 0.64
32 | NC(=O)C(Cc1c[nH]c2ccccc12)NC(=O)C(N)Cc1ccccc1 (stereo not drawn) (H-Phe-Trp-NH2; configuration not given here) | 1.38
33 | Nc1nnnn1-c1cccc(Cl)c1 | 1.44
34 | CCCCCC(O)C=CC1C(O)CC(O)C1CC=CCCCC(=O)OC (centres undefined) | 3.07
35 | Cc1ccc(CO)c(C=NNC(=O)c2cccs2)c1O | 3.03
36 | O=C(O)CCCCCON=C(c1ccnnc1)c1cccc(C(F)(F)F)c1 | 3.38
37 | CCN(CC)C(=O)c1cn2c(C)c(C)nc2c2c1CCC(c1ccccc1)O2 (centres undefined) | 4
38 | OCCCCCCCNc1ncnc2c1ncn2C1OC(CO)C(O)C1O (centres undefined) | 0.68
39 | CCCc1nc(NCC(=O)N(C)C)nc(N2CCOCC2)n1 | 0.67
40 | NC(N)=NCCCNC(=O)[C@@H]1CCCCN1C(=O)[C@@H](CC1CCCCC1)NCC(=O)O | -0.1
41 | Cn1c2c(c3cc([N+](=O)[O-])ccc31)CCNC2 | 2.07
42 | Clc1cc(Cl)c2c(oc3c(Cl)ccc(Cl)c32)c1Cl | 6.34
43 | O=C1Nc2ccc3cc4ccccc4nc3c2CO1 | 1.64
44 | COC(=O)C(C)NP(=O)(OCC1C=CC(n2cc(C)c(=O)[nH]c2=O)O1)Oc1ccc(F)cc1 (centres undefined) | 1.1
45 | CCNc1nc(O)nc(NC(C)(C)C)n1 | 3.53
46 | OCCCCCCCCCNc1[nH]cnc2ncnc1-2 | 2.75
47 | CCC(C)C(N)C(=O)NC(Cc1ccc(O)cc1)C(=O)NC(C(=O)NC(C(=O)O)C(C)C)C(C)CC (centres undefined) (H-IYIV-OH; configuration not given here) | -1.09
48 | C=CC(=O)OCCCCCC | 3.33
49 | CC(=O)OCC1OC(n2cc(F)c(=O)[nH]c2=O)C(OC(C)=O)C1OC(C)=O (centres undefined) | -0.25
50 | COC(=O)C(C)=CC1C(C(=O)OCc2cccc(Cc3ccccc3)c2)C1(C)C (centres undefined) | 6.41
51 | O=C1N=C(N2CCCC2)CN1c1ccc(Cl)cc1 | 2
52 | CC(=O)OC1CCCC2(C)CCC(C(C)(C)O)CC12 (centres undefined) | 3.42
53 | CCC(C)C(N)C(=O)NC(C(=O)NC(C(=O)NC(C(=O)O)C(C)C)C(C)C)C(C)CC (centres undefined) (H-IIVV-OH; configuration not given here) | -1.41
54 | O=C(O)C(c1ccc(-c2ccccc2)cc1)C(O)c1ccccc1 (centres undefined) | 3.6

Row | SMILES | logP
55 | CC(C)NC(=NC#N)NS(=O)(=O)c1cnccc1NC1CC1 | 0.01
56 | O=C1CN=C(c2ccccc2F)c2cc(Br)ccc2N1 | 2.98
57 | O=c1cc(-c2ccccc2)[nH]n1-c1ccc(Cl)cc1 | 2.6
58 | Cc1coc2cc3oc(=O)cc(C)c3cc12 | 2.76
59 | CC(=NNC(=O)c1ccncc1)c1cnccn1 | 1.2
60 | CCC(=O)[C@@]1(C)CC[C@H]2[C@@H]3CCC4=CC(=O)CCC4=C3CC[C@@]21C | 4.04
61 | Cc1ccccc1CNc1[nH]cnc2ncnc1-2 | 2.58
62 | CC(C)C(N)C(=O)N1CCCC1C(=O)NCC(=O)NC(C(=O)O)C(C)C (centres undefined) (H-VPGV-OH; configuration not given here) | -2.83
63 | O=c1[nH]c2cc(Cl)ccc2c(O)c1-c1cccc(Cc2ccc(CCN3CCOCC3)cc2)c1 | 5.2
64 | O=c1cc(-c2ccccc2Cl)oc2ccc(Cl)cc12 | 4.09
65 | COC(=O)C(C)NP(=O)(OCC1C=CC(n2cc(C)c(=O)[nH]c2=O)O1)Oc1ccc(Cl)cc1 (centres undefined) | 1.43
66 | CCC(C)C(NC(=O)C(Cc1ccc(O)cc1)NC(=O)C(C)N)C(=O)O (centres undefined) | -2.04
67 | CC(C)N(CC1CN=C(N)O1)C(C)C (centres undefined) | 0.98
68 | NC(=O)c1[nH]cc(-c2ccc(Cl)cc2)c1N1CCOCC1 | 2.4
69 | CC(C)CC(NC(=O)C(N)C(C)C)C(=O)O (stereo not drawn) (H-Val-Leu-OH; configuration not given here) | -2.07
70 | COC(=O)Nc1c(C)cccc1C | 1.69
71 | Clc1cc(Cl)c(-c2cc(Cl)cc(Cl)c2Cl)c(Cl)c1 | 6.87
72 | COc1ccc(Nc2nc(N)nc(O)n2)cc1OC | 1.76
73 | CCOC(=O)C1=C(C)NC(C)=C(C(=O)OC)C1c1cccc2c1OCCO2 (centres undefined) | 3.57
74 | Cn1c([N+](=O)[O-])cnc1-c1ccc(F)cc1 | 1.83
75 | CCCCCC(O)C=CC1C(O)CC(O)C1CC=CCCCC(=O)OCc1ccccc1 (centres undefined) | 4.11
76 | CCC(C)C(NC(=O)C(CC(C)C)NC(=O)C(N)C(C)O)C(=O)O (stereo not drawn) (H-Thr-Leu-Ile-OH; configuration not given here) | -1.66
77 | CCOC(=O)C1=C(C)NC(C)=C(C(=O)OC)C1c1ccccc1 (centres undefined) | 4.14
78 | Nc1nc(N)c2c([N+](=O)[O-])cccc2n1 | 1.19
79 | CCNc1nc(N)nc(O)n1 | 1.08

Reference: the OPERA property sets (Mansouri et al. 2018)
